Reference: patent US12129237B2, “Substituted diaminocarboxamide and diaminocarbonitrile pyrimidines, compositions thereof, and methods of treatment therewith” (SIGNAL PHARMACEUTICALS, LLC, priority 2011, dated 2024)

What follows are molecules tested against T1, JNK1 (Homo sapiens, UniProt P45983) (assay: JNK1 biochemical assays (one or more of: time resolved fluorescence, Z'-LYTE Cascade, radioactive)). Details: Table 2; JNK1 IC50 activity level; read-out: Act. Level.
T1 construct: purchased Carna Biosciences
T1 sequence (P45983 whole entry): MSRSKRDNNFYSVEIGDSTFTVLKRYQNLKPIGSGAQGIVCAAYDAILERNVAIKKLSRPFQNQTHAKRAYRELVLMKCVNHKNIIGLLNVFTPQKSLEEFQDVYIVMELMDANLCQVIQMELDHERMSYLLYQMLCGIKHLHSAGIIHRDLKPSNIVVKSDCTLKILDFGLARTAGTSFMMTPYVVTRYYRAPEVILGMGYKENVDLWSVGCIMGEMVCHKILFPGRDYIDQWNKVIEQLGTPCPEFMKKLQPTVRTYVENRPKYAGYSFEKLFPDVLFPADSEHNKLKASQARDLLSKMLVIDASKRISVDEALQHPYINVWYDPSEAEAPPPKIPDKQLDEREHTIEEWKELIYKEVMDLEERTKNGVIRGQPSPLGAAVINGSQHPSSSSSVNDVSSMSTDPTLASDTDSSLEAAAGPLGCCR
In the case of `COc1cccc(CNc2ncc(C(N)=O)c(Nc3ccccc3)n2)c1OC` [Example B-55, 2-(2,3-dimethoxybenzylamino)-4-(phenylamino)pyrimidine-5-carboxamide], the IC50 is reported as 200 to 800 nM.
`CCC(Nc1ncc(C(N)=O)c(Nc2ccccc2)n1)c1ccccc1` (stereo not shown) [Example B-56, 4-(phenylamino)-2-(1-phenylpropylamino)pyrimidine-5-carboxamide] showed an IC50 of 200 to 800 nM.
`NC(=O)c1cnc(NCc2ccc(F)cc2F)nc1Nc1ccccc1` [Example B-57, 2-(2,4-difluorobenzylamino)-4-(phenylamino)pyrimidine-5-carboxamide] showed an IC50 of 200 to 800 nM.
Molecule `CC1(C)OCC(CNc2ncc(C(N)=O)c(Nc3ccccc3)n2)O1` (stereo not shown) [Example B-58, 2-((2,2-dimethyl-1,3-dioxolan-4-yl)methylamino)-4-(phenylamino)pyrimidine-5-carboxamide] has an IC50 of 200 to 800 nM.
`CCC(C)CNc1ncc(C(N)=O)c(Nc2ccccc2)n1` (stereo not shown) [Example B-59, 2-(2-methylbutylamino)-4-(phenylamino)pyrimidine-5-carboxamide] showed an IC50 of under 200 nM.
Molecule `COc1ccccc1CNc1ncc(C(N)=O)c(Nc2ccccc2)n1` [Example B-60, 2-(2-methoxybenzylamino)-4-(phenylamino)pyrimidine-5-carboxamide] has an IC50 of 200 to 800 nM.
`CN(C)CCNc1ncc(C(N)=O)c(Nc2ccccc2)n1` [Example B-61, 2-(2-(dimethylamino)ethylamino)-4-(phenylamino)pyrimidine-5-carboxamide] showed an IC50 of 1000 to 10000 nM.
For `CN1CCCC1CCNc1ncc(C(N)=O)c(Nc2ccccc2)n1` (stereo not shown) [Example B-62, 2-(2-(1-methylpyrrolidin-2-yl)ethylamino)-4-(phenylamino)pyrimidine-5-carboxamide], the IC50 was 1000 to 10000 nM.
With `NC(=O)c1cnc(NCCc2ccccn2)nc1Nc1ccccc1` [Example B-63, 4-(phenylamino)-2-(2-(pyridin-2-yl)ethylamino)pyrimidine-5-carboxamide] the IC50 was 200 to 800 nM.
`NC(=O)c1cnc(NCC2CCCO2)nc1Nc1ccccc1` (stereo not shown) [Example B-64, 4-(phenylamino)-2-((tetrahydrofuran-2-yl)methylamino)pyrimidine-5-carboxamide] was tested, and the IC50 was 200 to 800 nM.
For `NC(=O)c1cnc(NCc2ccco2)nc1Nc1ccccc1` [Example B-65, 2-(furan-2-ylmethylamino)-4-(phenylamino)pyrimidine-5-carboxamide], the IC50 was 1000 to 10000 nM.
`COc1ccc(CCNc2ncc(C(N)=O)c(Nc3ccccc3)n2)cc1OC` [Example B-66, 2-(3,4-dimethoxyphenethylamino)-4-(phenylamino)pyrimidine-5-carboxamide] gave an IC50 of 200 to 800 nM.
Molecule `NC(=O)c1cnc(NCc2ccc(F)cc2)nc1Nc1ccccc1` [Example B-67, 2-(4-fluorobenzylamino)-4-(phenylamino)pyrimidine-5-carboxamide] has an IC50 of 200 to 800 nM.
Molecule `CCCNc1ncc(C(N)=O)c(Nc2ccccc2)n1` [Example B-68, 4-(phenylamino)-2-(propylamino)pyrimidine-5-carboxamide] has an IC50 of 200 to 800 nM.
Work on `COCCNc1ncc(C(N)=O)c(Nc2ccccc2)n1` [Example B-69, 2-(2-methoxyethylamino)-4-(phenylamino)pyrimidine-5-carboxamide] yielded an IC50 of 800 to 1000 nM.
Molecule `NC(=O)c1cnc(NCc2ccc(F)c(F)c2)nc1Nc1ccccc1` [Example B-70, 2-(3,4-difluorobenzylamino)-4-(phenylamino)pyrimidine-5-carboxamide] has an IC50 of 200 to 800 nM.
`NC(=O)c1cnc(NCCc2ccccc2)nc1Nc1ccccc1` [Example B-71, 2-(phenethylamino)-4-(phenylamino)pyrimidine-5-carboxamide] showed an IC50 of 200 to 800 nM.
With `CC(CNc1ncc(C(N)=O)c(Nc2ccccc2)n1)c1ccccc1` (stereo not shown) [Example B-72, 4-(phenylamino)-2-(2-phenylpropylamino)pyrimidine-5-carboxamide] the IC50 was 200 to 800 nM.
In the case of `NC(=O)c1cnc(NCc2ccccc2)nc1Nc1ccccc1` [Example B-73, 2-(benzylamino)-4-(phenylamino)pyrimidine-5-carboxamide], the IC50 is reported as 800 to 1000 nM.
For `NC(=O)c1cnc(N[C@@H]2CCCc3ccccc32)nc1N[C@@H]1CCC[C@H](O)C1` [Example B-74, 4-((1R,3S)-3-hydroxycyclohexylamino)-2-((R)-1,2,3,4-tetrahydronaphthalen-1-ylamino)pyrimidine-5-carboxamid], the IC50 was under 200 nM.
`NC(=O)c1cnc(N[C@H]2CCCc3ccccc32)nc1N[C@@H]1CCC[C@H](O)C1` [Example B-75, 4-((1R,3S)-3-hydroxycyclohexylamino)-2-((S)-1,2,3,4-tetrahydronaphthalen-1-ylamino)pyrimidine-5-carboxamid] gave an IC50 of under 200 nM.
`NC(=O)c1cnc(N[C@@H]2CCc3ncccc3C2)nc1N[C@@H]1CCC[C@H](O)C1` [Example B-76, 4-((1R,3S)-3-hydroxycyclohexylamino)-2-((R)-5,6,7,8-tetrahydroquinolin-6-ylamino)pyrimidine-5-carboxamid] showed an IC50 of under 200 nM.
`NC(=O)c1cnc(N[C@H]2CCc3ncccc3C2)nc1N[C@@H]1CCC[C@H](O)C1` [Example B-77, 4-((1R,3S)-3-hydroxycyclohexylamino)-2-((S)-5,6,7,8-tetrahydroquinolin-6-ylamino)pyrimidine-5-carboxamid] showed an IC50 of under 200 nM.
With `NC(=O)c1cnc(N[C@H]2CCOc3ccccc32)nc1N[C@@H]1CCC[C@H](O)C1` [Example B-78, 2-((S)-chroman-4-ylamino)-4-((1R,3S)-3-hydroxycyclohexylamino)pyrimidine-5-carboxamide] the IC50 was 800 to 1000 nM.
`NC(=O)c1cnc(N[C@@H]2CCOc3ccccc32)nc1N[C@@H]1CCC[C@H](O)C1` [Example B-79, 2-((R)-chroman-4-ylamino)-4-((1R,3S)-3-hydroxycyclohexylamino)pyrimidine-5-carboxamide] gave an IC50 of under 200 nM.
`CC(C)Nc1nc(N[C@H]2CCc3ncccc3C2)ncc1C(N)=O` [Example B-80, (S)-4-(isopropylamino)-2-(5,6,7,8-tetrahydroquinolin-6-ylamino)pyrimidine-5-carboxamide] gave an IC50 of under 200 nM.
In the case of `CC(C)Nc1nc(N[C@@H]2CCc3ncccc3C2)ncc1C(N)=O` [Example B-81, (R)-4-(isopropylamino)-2-(5,6,7,8-tetrahydroquinolin-6-ylamino)pyrimidine-5-carboxamide], the IC50 is reported as 200 to 800 nM.
Work on `CC(C)Nc1nc(N[C@@H]2CCc3ccccc3C2)ncc1C(N)=O` [Example B-83, (R)-4-(isopropylamino)-2-(1,2,3,4-tetrahydronaphthalen-2-ylamino)pyrimidine-5-carboxamide] yielded an IC50 of under 200 nM.
`NC(=O)c1cnc(N[C@@H]2CCc3ccccc3C2)nc1N[C@@H]1CCC[C@H](O)C1` [Example B-84, 4-((1R,3S)-3-hydroxycyclohexylamino)-2-((R)-1,2,3,4-tetrahydronaphthalen-2-ylamino)pyrimidine-5-carboxamide] was tested, and the IC50 was under 200 nM.
`NC(=O)c1cnc(N[C@H]2CCc3ccccc3C2)nc1N[C@@H]1CCC[C@H](O)C1` [Example B-85, 4-((1R,3)S-3-hydroxycyclohexylamino)-2-((S)-1,2,3,4-tetrahydronaphthalen-2-ylamino)pyrimidine-5-carboxamide] showed an IC50 of 800 to 1000 nM.
In the case of `N#Cc1cnc(NC2CCCCC2)nc1Nc1ccccc1` [Example B-86, 2-(cyclohexylamino)-4-(phenylamino)pyrimidine-5-carbonitrile], the IC50 is reported as 1000 to 10000 nM.
